# Read-outs that look alike come from different tables or passages of the source.
# Tests used:
# [1] = tested on: penile erection in normal male; details: cited from earlier work
# [2] = tested on: penile reflexes in castrated rats; assay: Penile reflexes (E2, cups) in castrated rats after transdermal application; type: in vivo, rat
# Description: (a) The ointment composition was: 31.2 μl 10% Sefsol 318™ (glyceryl monocaprylate), and either 0.24 mg stearoyl-VIP in 31.2 μl DMSO (1-2μl per animal) (SEFS in FIG. 1) or 0.24 rig stearoyl-Nle^17 -VIP in the above (SEFS* in FIG. 1).
# (b) For other analogs described hereinafter 10 μl of solution were used per animal containing 7 μg of active material in a vehicle containing 5% Sefsol and 20% isopropanol.
# In a further set of experiments the effects of stearoyl-VIP compounded with Sefsol 318™ were compared with those of stearoyl-Nle^17 -VIP compounded with Sefsol 318™.
# In a second type of biological experiments the effects of compositions containing other modified VIP conjugates compounded with Sefsol 318™ were tested.
# Rats with reduced sexual potential due to castration were employed. Male rats (250-300 g, about three month old) were kept in a 12-hours light, 12-hours dark cycle. Experiments were always conducted within the dark period, 2-6 hours after the onset of darkness. Male rats were castrated and given partial testosterone replacement (4 μg/100 g body weight) in the form of daily injection for 14-21 consecutive days (the duration of the experiment). Experiments were conducted one week following surgery.
# A procedure was utilized that employed the technique that measures sexual reflexes in the penis, which enables direct evaluation of penile erection following transdermal administration of the drug. Successful reproduction depends, in large part, upon the precise execution of temporally organized, functionally related behavioural units. In these experiments, we concentrated on the final stages of the erection process (reddening of the penis accompanied by its distension and extension leading to complete erection) and monitored the latency time to the first E2 and first cup(^14).
# For testing, each animal was restrained in a supine position with the anterior portion of its body enclosed in a loosely fitting cylinder (7 cm diam). After a belt was secured around the torso, the glans penis was extruded from its sheath and gently held perpendicular to the abdomen by a thin wooden applicator positioned at the posterior of the penis. The legs of the male were held by the observer and this position was maintained throughout the test period. The duration of the session was 45 minutes. The latencies and numbers of E2 and cups were recorded and plotted.
# An E2 is defined as a complete erection which can be followed by cup in which the penile tip is turned into a cup-like structure, whereby the glands flare out such that the penis is wider in its distal portion than its base. This final stage requires E2 and is probably a pre-requisite for ejaculation (13). Using, all the parameters one can obtain a reliable measure of the sexual activity of the tested rat.
# Six to ten animals were tested in this paradigm for each variable. Control animals received ointment compositions without the modified VIP conjugate.
# [3] = Skin penetration and body distribution of 125I-labelled conjugates after topical application to the penis; type: in vivo
# From the text: These experiments were divided into two groups. In the first group of experiments we performed a time course of the distribution of radioactively labelled stearoyl-Nle^17 -VIP (in Sefsol 318™), applied transdermally to the penis of the animals, in various organs of the body. In the second group of experiments we compared the penetration of radioactively labelled VIP, Nle^17 -VIP St-VIP and St-Nle^17 -VIP with Sefsol 318™ following transdermal application. Two to four animals were used for each data point. The derivatives were labelled with 1251 using the chloramine-T based method^(14).
# In the first group of experiments, stearoyl-Nle^17 -VIP was radioactively labelled with I^125. Each animal received 2.2 million CPM, in 6μl of the radioactive material+ 26μl ointment (ointment No. 4 in Example 5). Two animals were used for each time point in two independent experiments. To avoid oral absorbance, the animal mouth was sealed. At indicated times following topical application, animals were sacrificed and duplicate tissue samples were removed, weighed and counted in a gamma counter. Tissues measured were: lungs (LU), heart (HE), kidneys (KI), liver (Li) and intestine (IN).
# In the second group of experiments compositions of Sefsol 318™ and VIP, St-VIP, Nle^17 -VIP and St-Nle^17 -VIP were prepared. The experiments were performed as in FIG. 7 with the only difference that each animal received a 2.4 million CPM, 2-4 animals were utilized for each variable. Animals were sacrificed 30 minutes after the application of the drug.
# Sprague Dawley rats [4] = assay: Single dose toxicity, intravenous (tail vein); type: in vivo, rat; details: for acute intravenous median lethal dose (LD50): with vehicle
# Description: The single dose toxicity of stearoyl-Nle^17 -VIP injected intravenously, into the tail vein, was investigated in 4 groups of six male and six female rates [Sprague Dawley (S.D.) strain, purchased from Levinstein, Yokneam, Israel).
# Test Groups constitution:
# 2. Vehicle (Sefsol 5% + isopropanol 50%)
# 3. Stcaroyl-Nle^17 -VIP 7 μg/rat + vehicle
# 4. Stearyol-Nle^17 -VIP 7,000 μg/rat + vehicle
# [5] = Stability of the test material; type: physicochemical
# Sprague Dawley rats [6] = assay: Repeated dose toxicity, topical, 13 weeks
# Description: The repeated dose toxicity of stearoyl-Nle^17 -VIP administered topically was investigated in 80 SPF (Specified pathogen free) rats divided into 4 groups of ten male and ten female Sprague Dawley (S.D.) strain rats purchased from Harlan, Olac, England.
# Group 1: 7 μg stearoyl-Nle^17 -VIP+vehicle (1× dose)
# Group 2: 700 μg stearoyl-Nle^17 -VIP+vehicle (100× dose)
# Group 4: Vehicle only (5% Sefsol+20% isopropanol)
# [7] = Table 3, topical, 7 μg in 5% Sefsol and 20% isopropanol, castrated rats, 45 min session
# [8] = Group 3, 7 μg/rat + vehicle i.v.
# [9] = daily topical 7, 700, 3500 μg, 13 weeks
# [10] = daily topical 7, 700, 3500 μg, 13 weeks, male and female rats
substance,measurement,setting,value
Vasoactive intestinal peptide (HSDAVFTDNYTRLRKQMAVKKYLNSILN) [VIP],penile response,"[1]; as little as 1 μg into the corpus cavernosum, coupled with sexual stimulation",facilitated full erection
same,penile response,"[1]; up to 20 μg into the corpus cavernosum, without sexual stimulus",caused only slight swelling of the penis but not erection
stearoyl-norleucine^17 -VIP [St-Nle^17 -VIP],No. of E2,[2]; [7],9
same,No. of cups,[2]; [7],27
same,biologically active dose,"[2]; pharmacological experimentation, rat",7 μg per rat
same,latency to first E2,"[2]; topical, in Sefsol 318 ointment (SEFS*), castrated rats, 45 min session, FIG. 1",about 1 minute
same,latency to first cup,"[2]; topical, in Sefsol 318 ointment (SEFS*), castrated rats, 45 min session, FIG. 2",10 min
same,number of E2 during the test period,"[2]; topical, in Sefsol 318 ointment, castrated rats, 45 min session, FIG. 3",34
same,number of cups,"[2]; topical, in Sefsol 318 ointment, castrated rats, 45 min session, FIG. 4",20
same,efficiency according to all the four parameters tested,"[2]; transdermal, Sefsol 318 composition, compared with stearoyl-VIP in Sefsol 318",more efficient
same,"disappearance from organs, time after administration","[3]; 125I-labelled, topical in Sefsol 318, FIG. 7",2.5 h
same,"peak deliveries to organs, time after administration","[3]; 125I-labelled, topical in Sefsol 318, lungs, heart, kidneys, liver, intestine, FIG. 7",15 to 60 min
same,"concentrations in kidney, liver and intestines","[3]; 30 minutes after topical application in Sefsol 318, compared with VIP, Nle17-VIP, St-VIP, FIG. 8",highest concentrations
same,mortality,Sprague Dawley rats [4]; [8],No mortality
same,"necrotic reaction at the site of injection (tail skin), share of animals",Sprague Dawley rats [4]; [8],58%
same,"necrotic reaction at the site of injection (tail skin), share of animals","Sprague Dawley rats [4]; Group 4, 7,000 μg/rat + vehicle i.v.",all the animals
same,mortality,"Sprague Dawley rats [4]; Group 4, 7,000 μg/rat + vehicle i.v., within 3 hours after administration",Seven rats (3 male and 4 female out of 12) died
same,acute intravenous median lethal dose (LD50),Sprague Dawley rats [4]; combined males and females,"< 7,000 μg"
same,acute intravenous median lethal dose (LD50),Sprague Dawley rats [4]; male rats,"7,000 μg/male rat"
same,other side effects,Sprague Dawley rats [4]; surviving rats of all groups,No other side effects
same,body weight gain,"Sprague Dawley rats [4]; two weeks after i.v. dose, ANOVA versus vehicle control group",increased weight gain
same,stability compared with stearoyl-VIP,[5],more stable
same,Stability,[5]; powder,for a year
same,Stability,[5]; refrigerated in a solubilized form,for at least six weeks
same,adverse effects,Sprague Dawley rats [6]; [9],No dose related adverse effects
same,"clinical pathology (hematology, clinical chemistry)",Sprague Dawley rats [6]; [9],No dose related or sex related biologically meaningful treatment effects
same,body weight gain and food consumption,Sprague Dawley rats [6]; [10],No significant differences
same,mortality,Sprague Dawley rats [6]; [10],No mortality associated with drug application
same,organ weight analysis,"Sprague Dawley rats [6]; daily topical 7, 700, 3500 μg, 13 weeks, versus control group",No treatment related differences
same,"overall conclusion, serious adverse effects","Sprague Dawley rats [6]; daily topical application for 13 weeks, any of the dosages tested",did not cause any serious adverse effects
